The assay has as its system P388 leukemia ip, CD2F1 mice, survival T/C. Description: NCI In Vivo Anticancer Drug Screen. Data for tumor model P388 Leukemia (intraperitoneal) in CD2F1 (CDF1) mice. The settings on record: endpoint: median survival time, higher = longer survival. The essentials:
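Mice carrying the transplanted tumor received test compound or vehicle. Survival was recorded in each group, and the value is the treated-group measurement divided by that of the vehicle-treated control group.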

Setting [1] is: dose: 60.0 mg/kg/injection, schedule: Q01DX005 (ip), vehicle: saline with Tween-80.
Where [2] appears, read: dose: 120.0 mg/kg/injection, schedule: Q01DX005 (ip), vehicle: saline with Tween-80.
Setting [3] is: dose: 240.0 mg/kg/injection, schedule: Q01DX005 (ip), vehicle: saline with Tween-80.
Where [4] appears, read: dose: 25.0 mg/kg/injection, schedule: Q01DX009 (ip), vehicle: Klucel (hydroxypropylcellulose) (HPC).
Setting [5] is: dose: 50.0 mg/kg/injection, schedule: Q01DX009 (ip), vehicle: Klucel (hydroxypropylcellulose) (HPC).
Where [6] appears, read: dose: 100.0 mg/kg/injection, schedule: Q01DX009 (ip), vehicle: Klucel (hydroxypropylcellulose) (HPC).
[7] abbreviates: dose: 1.56 mg/kg/injection, schedule: Q04DX003 (ip), vehicle: water.
Setting [8] is: dose: 6.25 mg/kg/injection, schedule: Q04DX003 (ip), vehicle: water.
The mark [9] stands for this setting: dose: 12.5 mg/kg/injection, schedule: Q04DX003 (ip), vehicle: water.
Setting [10] is: dose: 200.0 mg/kg/injection, schedule: Q01DX009 (ip), vehicle: Klucel (hydroxypropylcellulose) (HPC).
Setting [11] is: dose: 12.5 mg/kg/injection, schedule: Q01DX009 (ip), vehicle: saline with Tween-80.

Several values for one entry are separate records, joined by “and”; a condition that tells them apart may be missing. Identical values can stand only once. Inconclusive results and toxic doses are left out.

With `Cc1cnn(-c2ccccc2)[n+]1[O-]`, the T/C was 99 % of control (dose: 50.0 mg/kg/injection, schedule: Q01DX005 (ip), vehicle: saline); 96 % of control (dose: 100.0 mg/kg/injection, schedule: Q01DX005 (ip), vehicle: saline); 102 % of control (dose: 200.0 mg/kg/injection, schedule: Q01DX005 (ip), vehicle: saline).

For `CCOC(=O)C1=C(C)Nc2cc[nH]c(=O)c2C1c1ccccc1Cl` (stereo unspecified), the T/C is 107 % of control under setting [1], 103 % of control under setting [2] and 104 % of control under setting [3].

Take `CNC1=CC(=S)NC(C)(C)C1`: the T/C is 100 % of control (dose: 50.0 mg/kg/injection, schedule: Q01DX009 (ip), vehicle: saline); 92 % of control (dose: 100.0 mg/kg/injection, schedule: Q01DX009 (ip), vehicle: saline); 92 % of control (dose: 200.0 mg/kg/injection, schedule: Q01DX009 (ip), vehicle: saline).

On to `O=C1c2ccccc2CCC12OC2c1ccncc1` (stereo unspecified), for which the T/C was 107 % of control under setting [4], 110 % of control under setting [5] and 100 % of control under setting [6].

With `O=C(O)c1ccc([N+](=O)[O-])o1`, the T/C reads like this: under setting [4], 99 % of control; under setting [5], 89 % of control; under setting [6], 96 % of control.

Take `CCN(CC)CC[n+]1ccc2c(C)c3[nH]c4ccc(O)cc4c3c(C)c2c1`: the T/C was 167 % of control (dose: 1.56 mg/kg/injection, schedule: Q04DX003 (ip), vehicle: saline); 155 % of control (dose: 1.56 mg/kg/injection, schedule: Q04DX003 (ip), vehicle: suspension in saline); 156 % of control under setting [7]; 155 % of control (dose: 3.12 mg/kg/injection, schedule: Q04DX003 (ip), vehicle: saline); 169 % of control (dose: 3.12 mg/kg/injection, schedule: Q04DX003 (ip), vehicle: suspension in saline); 161 % of control (dose: 3.12 mg/kg/injection, schedule: Q04DX003 (ip), vehicle: water). Besides, the T/C (dose: 6.25 mg/kg/injection, schedule: Q04DX003 (ip), vehicle: saline) was 180 % of control and 213 % of control; the T/C (dose: 6.25 mg/kg/injection, schedule: Q04DX003 (ip), vehicle: suspension in saline) was 169 % of control; the T/C under setting [8] was 166 % of control; the T/C (dose: 12.5 mg/kg/injection, schedule: Q04DX003 (ip), vehicle: saline) was 174 % of control and 177 % of control; the T/C (dose: 12.5 mg/kg/injection, schedule: Q04DX003 (ip), vehicle: suspension in saline) is 226 % of control; the T/C under setting [9] was 181 % of control. Besides, the T/C by setting is: (dose: 25.0 mg/kg/injection, schedule: Q04DX003 (ip), vehicle: saline) 194 % of control and 210 % of control; (dose: 25.0 mg/kg/injection, schedule: Q04DX003 (ip), vehicle: suspension in saline) 164 % of control; (dose: 50.0 mg/kg/injection, schedule: Q04DX003 (ip), vehicle: saline) 178 % of control and 203 % of control; (dose: 50.0 mg/kg/injection, schedule: Q04DX003 (ip), vehicle: suspension in saline) 180 % of control.

Take `Nc1ccc2c(c1)CCCC2=O`: the T/C by setting is: under setting [1], 102 % of control; under setting [2], 93 % of control; under setting [3], 107 % of control.

As for `ICC1(CI)COC1`, the T/C reads like this: under setting [6], 105 % of control; under setting [10], 104 % of control; (dose: 400.0 mg/kg/injection, schedule: Q01DX009 (ip), vehicle: Klucel (hydroxypropylcellulose) (HPC)) 99 % of control.

With `CC(C)(C)OC(=O)NC(CCC(=O)O)(Cc1ccccc1)C(=O)NC(CCC(=O)OCc1ccccc1)C(=O)OCc1ccccc1` (stereo unspecified), the T/C is, setting by setting: (dose: 6.25 mg/kg/injection, schedule: Q01DX005 (ip), vehicle: saline with Tween-80) 98 % of control; (dose: 12.5 mg/kg/injection, schedule: Q01DX005 (ip), vehicle: saline with Tween-80) 96 % of control; (dose: 25.0 mg/kg/injection, schedule: Q01DX005 (ip), vehicle: saline with Tween-80) 105 % of control.

For `COc1cccc2c1C(=O)c1c(O)c3c(c(O)c1C2=O)C[C@@](O)(C(C)=O)C[C@@H]3OC1CC(N2CCC(OC)CC2)C(O)C(C)O1` (stereo partly specified), the T/C runs as follows: (dose: 0.39 mg/kg/injection, schedule: Q04DX003 (ip), vehicle: water) 114 % of control; (dose: 0.78 mg/kg/injection, schedule: Q04DX003 (ip), vehicle: water) 104 % of control; under setting [7], 111 % of control and 114 % of control; under setting [8], 181 % of control and 217 % of control; under setting [9], 118 % of control.

Take `Nc1ccccc1N1C(c2ccccc2)=CC(=O)N2CCN=C21`: the T/C was 90 % of control under setting [5], 101 % of control under setting [6] and 95 % of control under setting [10].

As to `CC(=O)NC1C(NC(=S)NCC(=O)c2ccc(C)cc2)OC(COC(C)=O)C(OC(C)=O)C1OC(C)=O` (stereo unspecified), the T/C is, setting by setting: (dose: 50.0 mg/kg/injection, schedule: Q01DX005 (ip), vehicle: saline with Tween-80) 94 % of control; (dose: 100.0 mg/kg/injection, schedule: Q01DX005 (ip), vehicle: saline with Tween-80) 94 % of control; (dose: 200.0 mg/kg/injection, schedule: Q01DX005 (ip), vehicle: saline with Tween-80) 91 % of control.

Regarding `CSC(=N\N=C(/C)c1ccc(Br)cc1)/N=C/N(C)C`, the T/C by setting is: under setting [1], 100 % of control; under setting [2], 102 % of control; under setting [3], 102 % of control.

Take `CC1OC(C)(C)OC1C(=O)OCc1ccccc1` (stereo unspecified): the T/C by setting is: (dose: 25.0 mg/kg/injection, schedule: Q01DX005 (ip), vehicle: water) 96 % of control; (dose: 50.0 mg/kg/injection, schedule: Q01DX005 (ip), vehicle: water) 105 % of control; (dose: 100.0 mg/kg/injection, schedule: Q01DX005 (ip), vehicle: water) 100 % of control; (dose: 200.0 mg/kg/injection, schedule: Q01DX005 (ip), vehicle: water) 100 % of control; (dose: 400.0 mg/kg/injection, schedule: Q01DX005 (ip), vehicle: water) 100 % of control.

Consider `CCCCCCC[CH2][Sn]([CH2]CCCCCCC)([NH]S(=O)(=O)c1ccc(C)cc1)[NH]S(=O)(=O)c1ccc(C)cc1`, for which the T/C is 100 % of control (dose: 25.0 mg/kg/injection, schedule: Q04DX003 (ip), vehicle: saline sonified); 122 % of control (dose: 50.0 mg/kg/injection, schedule: Q04DX003 (ip), vehicle: saline sonified); 100 % of control (dose: 100.0 mg/kg/injection, schedule: Q04DX003 (ip), vehicle: saline sonified).

`COc1cc([C@H]2OC[C@H]3[C@@H]2CO[C@@H]3c2ccc(OC(C)=O)c(OC)c2)ccc1OC(C)=O`: the T/C reads like this: (dose: 12.5 mg/kg/injection, schedule: Q01DX005 (ip), vehicle: Klucel (hydroxypropylcellulose) (HPC)) 96 % of control; (dose: 25.0 mg/kg/injection, schedule: Q01DX005 (ip), vehicle: Klucel (hydroxypropylcellulose) (HPC)) 93 % of control; (dose: 50.0 mg/kg/injection, schedule: Q01DX005 (ip), vehicle: Klucel (hydroxypropylcellulose) (HPC)) 86 % of control.

`COc1ccc(/C=C/C(=O)c2ccc3c(c2)OCO3)cc1OC`: the T/C under setting [11] is 98 % of control; the T/C (dose: 25.0 mg/kg/injection, schedule: Q01DX009 (ip), vehicle: saline with Tween-80) is 98 % of control and 100 % of control; the T/C (dose: 50.0 mg/kg/injection, schedule: Q01DX009 (ip), vehicle: saline with Tween-80) was 99 % of control and 101 % of control; the T/C (dose: 100.0 mg/kg/injection, schedule: Q01DX009 (ip), vehicle: saline with Tween-80) is 100 % of control and 94 % of control; the T/C (dose: 200.0 mg/kg/injection, schedule: Q01DX009 (ip), vehicle: saline with Tween-80) is 103 % of control and 93 % of control; the T/C (dose: 200.0 mg/kg/injection, schedule: Q04DX003 (ip), vehicle: saline with Tween-80) is 109 % of control. The T/C by setting is: (dose: 300.0 mg/kg/injection, schedule: Q01DX009 (ip), vehicle: saline with Tween-80) 93 % of control; (dose: 400.0 mg/kg/injection, schedule: Q01DX009 (ip), vehicle: saline with Tween-80) 100 % of control; (dose: 400.0 mg/kg/injection, schedule: Q04DX003 (ip), vehicle: saline with Tween-80) 109 % of control.

As to `CN1CC2(c3ccccc3)CN(C)CC(c3ccccc3)(C1)C2=O`, the T/C is 100 % of control (dose: 6.25 mg/kg/injection, schedule: Q01DX009 (ip), vehicle: saline with Tween-80) and 86 % of control under setting [11].

(Values after PubChem BioAssay AID330 (DTP/NCI, 2004).)
